Measurements reported in article PMC8887546, “Design and Synthesis of Brain Penetrant Glycopeptide Analogues of PACAP With Neuroprotective Potential for Traumatic Brain Injury and Parkinsonism” (Frontiers in drug discovery, 2022).

How the values were obtained:
[1] = tested on: Sprague Dawley rats, 6-OHDA lesion; assay: Striatal TH expression, semi-quantitative western analysis (study 2); type: in vivo, rat; conditions: more severe (40%) lesion, vs vehicle
Procedure: Rats were treated with 2LS98Lac or saline (vehicle) as outlined in the Schemes in Figures 9A,B via intraperitoneal (i.p.) injection (15 mg/kg). All animals were made hemi-parkinsonian with unilateral, striatal 6-hydroxydopamine (Sigma Aldrich, St. Louis, MO) injections. After surgery, behavioral assessments were done at 2- and 4-weeks post-surgery. 24 h after the last test animals were either euthanized and whole brains were harvested for future biochemical analysis or perfused and brains collected for immunohistochemistry and stereological assessment of tyrosine hydroxylase-positive (TH+) cells remaining in the SNc. In study 1: n = 16 each group were included, and all underwent the behavioral analysis: n = 16, and for the stereology in the SNc, n = 8 each group was used. In study 2: n = 23 each group were included. […] In the 2LS98Lac group, one video at 4 weeks was lost, reducing n = 22 in this specific analysis, and for the stereology, 2 brains were damaged during processing and could not be included in the stereology of the SNc, therefore […]. For biochemical subanalyses, n = 8 each group. For the microglial morphology subanalysis n = 7 each group.
FIGURE 9 | Evaluation of neuroprotection of the PACAP glycopeptide 2LS98Lac in rat Parkinson’s disease models. (A) Scheme for study 1, using a mild PD lesion. (B) Scheme for study 2, using a moderate PD lesion. […]

human VPAC2 receptor = target: T1, human VPAC2 receptor (Homo sapiens, UniProt P41587); assay: cAMP stimulation in CHO cells expressing VPAC2; type: cell-based
T1 construct: expressed in transfected cells; host or cells: CHO cells (G418 selection)
T1 sequence (P41587 24-438): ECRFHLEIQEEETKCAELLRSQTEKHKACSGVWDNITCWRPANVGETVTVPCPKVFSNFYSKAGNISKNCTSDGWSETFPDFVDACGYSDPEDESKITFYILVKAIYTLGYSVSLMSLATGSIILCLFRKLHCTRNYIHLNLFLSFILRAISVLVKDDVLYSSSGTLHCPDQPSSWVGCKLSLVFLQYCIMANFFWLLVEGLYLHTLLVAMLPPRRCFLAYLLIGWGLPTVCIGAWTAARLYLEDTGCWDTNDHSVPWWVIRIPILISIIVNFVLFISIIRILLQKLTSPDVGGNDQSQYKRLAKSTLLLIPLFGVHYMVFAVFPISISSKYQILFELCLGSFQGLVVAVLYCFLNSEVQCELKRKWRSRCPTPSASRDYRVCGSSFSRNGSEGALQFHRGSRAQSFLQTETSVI
In short: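 Serum-starved CHO cells expressing human receptors were pre-treated 20 min with 500 μM IBMX, then exposed to agonist concentration curves for 10 min in 500 μM IBMX. cAMP quantified by competition with bovine PKA and ^3H-cAMP (1 h, room temperature), scintillation read.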

Structure (SMILES): [2H]C([2H])([2H])C([2H])(C([2H])([2H])[2H])[C@]([2H])(NC(=O)[C@H](C)NC(=O)[C@H](C)NC(=O)[C@H](CC(C)C)NC(=O)[C@H](Cc1ccc(O)cc1)NC(=O)[C@H](CCCCN)NC(=O)[C@H](CCCCN)NC(=O)[C@@]([2H])(NC(=O)[C@H](C)NC(=O)[C@H](CC(C)C)NC(=O)[C@H](CCC(N)=O)NC(=O)[C@H](CCCCN)NC(=O)[C@H](CCCNC(=N)N)NC(=O)[C@H](Cc1ccc(O)cc1)NC(=O)[C@H](CCCNC(=N)N)NC(=O)[C@H](CO)NC(=O)[C@H](Cc1ccc(O)cc1)NC(=O)[C@H](CO)NC(=O)[C@H](CC(=O)O)NC(=O)[C@@H](NC(=O)[C@H](Cc1ccccc1)NC(=O)[C@@H](NC(=O)CNC(=O)[C@H](CC(=O)O)NC(=O)[C@H](CO)NC(=O)[C@@H](N)Cc1c[nH]cn1)[C@@H](C)CC)[C@@H](C)O)C([2H])(C([2H])([2H])[2H])C([2H])([2H])[2H])C(=O)N[C@@H](CC(C)C)C(=O)N[C@@H](CO[C@@H]1O[C@H](CO)[C@@H](O[C@@H]2O[C@H](CO)[C@H](O)[C@H](O)[C@H]2O)[C@H](O)[C@H]1O)C(N)=O [Compound 2LS98Lac]
- Striatal TH [1]: no significant difference
- EC50 (human VPAC2 receptor): 193 nM
- Emax (human VPAC2 receptor; CHO): 100%
- Receptor selectivity ratio VPAC2/PAC1 (human VPAC2 receptor; ratio of cAMP EC50 values): 268.06
- Receptor selectivity ratio VPAC2/VPAC1 (human VPAC2 receptor; ratio of cAMP EC50 values): 428.89
